Consider one compound from article PMC9877316, “Identification of a novel P2X7 antagonist using structure-based virtual screening” (Frontiers in Pharmacology, 2023).

For one data set, the target named is T1, rat P2X7 (Rattus norvegicus, UniProt Q64663).
T1 construct: expressed in transfected cells; host or cells: HEK-293 cells stably expressing rat P2X7-GFP (patch clamp)
T1 sequence (Q64663 1-595): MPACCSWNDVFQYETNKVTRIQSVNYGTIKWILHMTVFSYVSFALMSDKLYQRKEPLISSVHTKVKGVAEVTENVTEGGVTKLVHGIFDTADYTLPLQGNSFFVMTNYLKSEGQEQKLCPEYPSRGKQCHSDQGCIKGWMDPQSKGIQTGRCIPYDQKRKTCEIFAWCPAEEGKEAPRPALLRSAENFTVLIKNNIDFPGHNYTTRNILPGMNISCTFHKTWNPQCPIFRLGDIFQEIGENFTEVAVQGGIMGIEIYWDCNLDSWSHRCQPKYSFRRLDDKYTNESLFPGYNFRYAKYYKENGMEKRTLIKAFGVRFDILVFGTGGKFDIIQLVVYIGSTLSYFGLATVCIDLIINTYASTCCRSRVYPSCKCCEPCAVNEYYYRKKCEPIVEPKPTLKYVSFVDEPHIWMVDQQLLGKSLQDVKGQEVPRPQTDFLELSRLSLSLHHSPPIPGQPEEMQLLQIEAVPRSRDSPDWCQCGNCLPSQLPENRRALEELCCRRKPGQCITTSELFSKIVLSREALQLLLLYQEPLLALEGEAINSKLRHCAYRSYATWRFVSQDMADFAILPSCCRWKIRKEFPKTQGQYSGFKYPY
Description: ATP/BzATP-induced YoPro-1 dye uptake assay, rat P2X7. Format: cell-based. The method, then: 1321N1 astrocytoma cells and HEK-293 cells were cultured (at 37°C, 5% CO2) in Dulbecco’s modified Eagle’s medium (DMEM/F-12 with Glutamax) supplemented with 10% foetal bovine serum (FBS) and 200 unit/ml of penicillin and streptomycin antibiotics (Fisher Scientific). For stable cell line generation, cells were transfected using FuGene HD Transfection Reagent (Promega) according to the manufacturer’s protocol with plasmids encoding either human P2X4 with a C-terminal (His)10 tag ([Young et al., 2008]), human P2X7 with a C-terminal EYMPME tag (kindly provided by R.A. North) or rat P2X7 C-terminally tagged with a GFP-(His)8 tag, generated by PCR amplification of the coding sequence for rat P2X7 from a pcDNA-based expression vector ([Young et al., 2007]), adding XhoI and EcoRI sites at the 5′- and 3′- ends respectively, followed by restriction digestion and ligation into a zebrafish P2X4-GFP expression vector based on pEGFP-C1 (kindly provided by Eric Gouaux; [Kawate and Gouaux, 2006]) to replace the zebrafish P2X4 coding region with rP2X7. Transfected clones were grown in DMEM/F-12 with Glutamax medium supplemented with G-418 (Geneticin®, Fisher Scientific), 600 μg/ml and 150 μg/ml during selection and maintenance respectively. […] HEK-293 cells stably expressing human P2X7 ([Adinolfi et al., 2010]) were a kind gift from Elena Adinolfi.
Cells were plated as for the calcium influx assay (Section 2.4). Culture medium was replaced with low divalent cation containing extracellular solution (ECS-LD; 147 mM NaCl, 10 mM HEPES, 13 mM Glucose, .2 mM CaCl2, 2 mM KCl. pH = 7.4 in MilliQ water) and 5 μM Yopro-1. […] The baseline was measured with a BMG Clariostar instrument for 5–10 cycles, followed by addition of ATP (or BzATP) and recording for at least 30 further cycles (approx. 1 min per data point). The collected responses were normalized to the first data-point recorded after ATP addition. The initial gradient of the dye uptake curve was used to calculate the response to ATP.
In order to confirm GP-25 as a competitive (orthosteric) antagonist, BzATP concentration-response curves (ranging between 300 μM and .03 µM) were constructed for rat P2X7-GFP in the YoPro-1 uptake assay in the presence of increasing concentrations of GP-25 (Figure 3A).

In the next data set the test system is HEK-293. Put plainly: CellTiter-Blue cell viability assay. The conditions noted are these: 30 µM compound; 24 h incubation; HEK-293 wild-type. Format: cell-based, human. As for the experimental part:
To assess hit compound toxicity, CellTiter-Blue Cell Viability Assay (Promega, Southampton, United Kingdom) was used as recommended by the manufacturer on not transfected HEK-293. Cells were seeded in 96-well plates (100 μL at a concentration of 30–35,000 cells/ml) in culture media and a day later media was replaced with 100 µL fresh media containing 30 µM of tested compounds (10 µM of A740003). After 24 h incubation at 37 °C, 5% CO2, 20 µL of CellTiter Blue reagent was added to each well and incubated for 3 h at 37°C. Fluorescence was then measured with a BMG Clariostar using excitation/emission wavelengths of 560/590 nm. Data were normalized to vehicle control-treated cells (.1% DMSO).

For orientation: IC50 means the midpoint of a concentration-inhibition curve. A higher IC50 goes with weaker potency. By inhibition is commonly meant the percentage by which the read-out fell short of the control.

For the compound `COC(=O)C1=C(C)NC2=C(C(=O)c3ccccc32)C1c1cc(Br)ccc1OCC(=O)O` (centres unmarked) [Compound 9, (4-bromo-2-(3-(methoxycarbonyl)-2-methyl-5-oxo-4,5-dihydro-1H-indeno(1,2-b)pyridine-4-yl)phenoxy)acetic acid], the Schild plot slope on rat P2X7 (BzATP concentration-response curves, rat P2X7-GFP, increasing GP-25 up to 100 µM) was 1.004 ± .2584. Besides, at rat P2X7 (BzATP, rat P2X7-GFP, YoPro-1), the “mode of antagonism (Schild analysis)” value is recorded as “competitive (orthosteric) antagonism”. The same compound had an IC50 against rat P2X7 (YoPro-1 uptake, 300 µM ATP) of 24.4 µM. Moreover, at rat P2X7 (approx. % inhibition at 30 μM compound, 300 µM ATP, YoPro-1 uptake, rat P2X7-GFP, read-out: % Inhibition at rP2X7), the inhibition at 30 µM is 47%. For the same compound, in the data set on HEK-293, the cell viability entry was “did not significantly reduce cell viability”.
